Measurements from patent US6403647B1, “Pulsed administration of compositions for the treatment of blood disorders” (priority 1996, dated 2002).

Tests used:
[1] = DNA fragmentation assays (cell viability); type: cell-based
Source text: Normal cell viability, the viability of an untransformed or uninfected cell, can be determined from analyzing the effects of the composition on one or more biological processes of the cell. Detrimental interference with one or more of these cellular processes becomes significant when the process becomes abnormal. Examples of quantitatable and qualifiable biological processes include the processes of cell division, protein synthesis, nucleic acid (DNA or RNA) synthesis, nucleic acid (principally DNA) fragmentation and apoptosis. Others processes include specific enzyme activities, the activities of the cellular transportation systems such as the transportation of amino acids by system A (neutral), system B (acidic) or system C (basic), and the expression of a cell surface protein. […] Abnormal cell division, for example, can be mitosis which occurs too rapidly, as in a malignancy, or unstably, resulting in programmed cell death or apoptosis, detected by increased DNA degradation. The determination of abnormal cell viability can be made on comparison with untreated control cells. Compositions preferably increase normal cell viability. Increased cell viability can be determined by those of ordinary skill in the art using, for example, DNA fragmentation analysis. […] Determinations of increased or decreased viability can also be concluded from an analysis of the results of multiple different assays. Where multiple tests provide conflicting results, accurate conclusions can still be drawn by those of ordinary skill based upon the cell type, the correctness or correlation of the tests with actual conditions and the type of composition.
Patients with blood disorders are typically quite infirm with, for example, iron damaged organs and systems. Most treatments further tax the patient's already frail health in an effort to combat the disorder.

[2] = Conventional versus pulse treatment of a sickle cell patient; type: in vivo, human
Protocol: Conventional treatment: A patient with sickle cell disease was tested with arginine butyrate at 750 mg/kg. Drug was administered by infusion for 10-16 hours per day and 5 days/week. […] After 150 days, total HbF declined to about 10%.
Pulse treatment: Treatment of the same sickle cell patient as above was changed from weekly to pulse administration of arginine butyrate about one year later (FIG. 5B). Arginine butyrate was administered by infusion at 500 to 750 mg/kg for 4 days for about 10-16 hours per day. After the 4 day regimen, drug was withheld for 10 days before treatment was repeated. This regimen was continued for about 5 months and percent total fetal hemoglobin increased to over 20%. This level was maintained until treatment was discontinued. Hemoglobin F levels above 20% are generally considered to be sufficient to eliminate symptoms associated with sickle cell disease.

[3] = tested on: system A transport of amino acids; assay: Uptake of 3H-methyl-aminoisobutyric acid (MeAIB) into erythroblasts; type: cell-based
Protocol: Erythroblasts were tested for alterations in uptake of radio-labelled amino acid (^3H-methyl-aminoisobutyric acid; MeAIB) in the presence of AB (arginine butyrate), AMHCA (α-methylhydrocinnamic acid), PAA (phenoxyacetic acid), and IBT (isobutyramide), each at 2.0 mM.

arginine butyrate
cell viability in DNA fragmentation assays [1]: decrease cell viability | percent total HbF ([2]; conventional treatment, after 150 days): about 10% | percent total HbF ([2]; conventional, 750 mg/kg infusion 10-16 hours per day, 5 days/week, from 3%): 15-18% | percent total fetal hemoglobin ([2]; pulse, 500 to 750 mg/kg for 4 days, 10 days withheld, about 5 months): over 20% | amino acid (MeAIB) uptake / transport ([3]; 2.0 mM, relative to untreated fetal liver erythroid cells): inhibited amino acid uptake | inhibition of MeAIB uptake ([3]; after 60 and 120 minutes): most significant
